How the values were obtained:
Pan troglodytes [1] = experiment: Compound was evaluated for diuretic activity in chimpanzee measured as increase in volume of urine at 1 mg/kg; type: functional
Pan troglodytes [2] = experiment: Compound was evaluated for diuretic activity in chimpanzee measured as clearance of […] and urate after intra venous administration of 0. 5 mg/kg.; type: functional, Urine
Pan troglodytes [3] = experiment: Compound was evaluated for diuretic activity in chimpanzee measured as clearance of […] and urate after peroral administration of 5 mg/kg; type: functional, Urine; conditions: route oral
Pan troglodytes [4] = experiment: (§1) Compound was evaluated for diuretic activity in chimpanzee measured as increase in the number of microequivalents of Na+ /min at 1 mg/kg; type: functional, Urine
Pan troglodytes [5] = experiment: Compound was evaluated for diuretic activity in chimpanzee measured as increase in volume of urine at 0.5 mg/kg; type: functional
Pan troglodytes [6] = experiment: (§2) Compound was evaluated for diuretic activity in chimpanzee measured as increase in the number of microequivalents of Cl- electrolyte/min at 1 mg/kg; type: functional, Urine
Pan troglodytes [7] = experiment: as §2; type: functional, Urine; remark: listed apart in the source
Pan troglodytes [8] = experiment: Compound was evaluated for diuretic activity in chimpanzee measured as increase in the number of microequivalents of K+ /min at 0.5 mg/kg; type: functional, Urine
Pan troglodytes [9] = experiment: Compound was evaluated for diuretic activity in chimpanzee measured as increase in the number of microequivalents of K+ /min at 1 mg/kg; type: functional, Urine
Pan troglodytes [10] = experiment: Compound was evaluated for diuretic activity in chimpanzee measured as increase in the number of microequivalents of Na+ /min at 0.5 mg/kg; type: functional, Urine
Canis familiaris [11] = species on record: Canis familiaris; experiment: Volume of urine in dog; type: ADME, organism-based, Canis lupus familiaris; conditions: in vivo
Pan troglodytes [12] = experiment: Compound was evaluated for diuretic activity in chimpanzee measured as increase in volume of urine at 5 mg/kg; type: functional
Pan troglodytes [13] = experiment: Compound was evaluated for diuretic activity in chimpanzee measured as clearance of […] and urate after intra venous administration of 1 mg/kg; type: functional, Urine
Pan troglodytes [14] = experiment: as §1; type: functional, Urine; remark: listed apart in the source
Pan troglodytes [15] = experiment: Compound was evaluated for diuretic activity in chimpanzee measured as increase in the number of microequivalents of Na+ /min at 5 mg/kg; type: functional, Urine
Pan troglodytes [16] = experiment: Compound was evaluated for diuretic activity in chimpanzee measured as increase in the number of microequivalents of Cl- electrolyte/min at 5 mg/kg; type: functional, Urine
Canis familiaris [17] = experiment: Compound was evaluated for diuretic activity, in female mongrel dogs by measuring amount of Cl- in urine after iv administration of 5 mg/kg (control/compound treatment results) Control = 6; type: functional, Canis lupus familiaris
Pan troglodytes [18] = experiment: Compound was evaluated for diuretic activity in chimpanzee measured as increase in the number of microequivalents of K+ /min at 5 mg/kg; type: functional, Urine
Canis familiaris [19] = experiment: (§3) Compound was evaluated for diuretic activity, in female mongrel dogs by measuring volume of urine, after iv administration of 5 mg/kg (control/compound treatment results) Control = 1; type: functional, Canis lupus familiaris
Canis familiaris [20] = experiment: Compound was evaluated for diuretic activity, in female mongrel dogs by measuring amount of K+ in urine after iv administration of 5 mg/kg (control/compound treatment results) Control = 5; type: functional, Canis lupus familiaris
Canis familiaris [21] = experiment: Compound was evaluated for diuretic activity, in female mongrel dogs by measuring amount of Na+ in urine after iv administration of 5 mg/kg (control/compound treatment results) Control = 37; type: functional, Canis lupus familiaris
Canis familiaris [22] = experiment: Compound was evaluated for diuretic activity, administered orally in female mongrel dogs (5 mg/kg) measured as milliequivalents of Cl-; type: functional, Canis lupus familiaris, Urine
Canis familiaris [23] = experiment: Compound was evaluated for diuretic activity, administered orally in female mongrel dogs (5 mg/kg) measured as milliequivalents of K; type: functional, Canis lupus familiaris, Urine
Canis familiaris [24] = experiment: Compound was evaluated for diuretic activity, administered orally in female mongrel dogs (5 mg/kg) measured as milliequivalents of Na; type: functional, Canis lupus familiaris, Urine
Canis familiaris [25] = experiment: as §3; type: ADME, organism-based, Canis lupus familiaris; parameters: dose 5 mg/kg, route intravenous; conditions: dog, in vivo
[26] = volume of urine at 3 mg/kg; type: ADME, organism-based; parameters: dose 3 mg/kg; conditions: in vivo
[27] = volume of urine at 81 mg/kg; type: ADME, organism-based; parameters: dose 81 mg/kg; conditions: in vivo
[28] = volume of urine at 9 mg/kg; type: ADME, organism-based; parameters: dose 9 mg/kg; conditions: in vivo
Canis familiaris [29] = species on record: Canis familiaris; experiment: volume of urine in dog; type: ADME, organism-based, Canis lupus familiaris; conditions: in vivo
Pan troglodytes [30] = experiment: Compound was evaluated for diuretic activity in chimpanzee measured as clearance of […] and urate after intra venous administration of 1 mg/kg.; type: functional, Urine
Canis familiaris [31] = experiment: Compound was evaluated for diuretic activity, in female mongrel dogs by measuring amount of Cl- in urine after iv administration of 5 mg/kg (control/compound treatment results) Control = 1; type: functional, Canis lupus familiaris
Canis familiaris [32] = experiment: Compound was evaluated for diuretic activity, in female mongrel dogs by measuring amount of K+ in urine after iv administration of 5 mg/kg (control/compound treatment results) Control = 18; type: functional, Canis lupus familiaris
Canis familiaris [33] = experiment: Compound was evaluated for diuretic activity, in female mongrel dogs by measuring amount of Na+ in urine after iv administration of 5 mg/kg (control/compound treatment results) Control = 29; type: functional, Canis lupus familiaris
Rattus norvegicus [34] = experiment: Compound was evaluated for diuretic activity administered orally in female rats measured as milliequivalents of Na+x 100 / cage at 81 mg/kg; type: functional, Urine; conditions: route oral
Rattus norvegicus [35] = experiment: Compound was evaluated for diuretic activity administered orally in female rats measured as milliequivalents of Na+x 100 / cage at 9 mg/kg; type: functional, Urine; conditions: route oral
Rattus norvegicus [36] = experiment: Compound was evaluated for diuretic activity administered orally in female rats measured as milliequivalents of Cl-+x 100 / cage at 27 mg/kg; type: functional, Urine; conditions: route oral
Rattus norvegicus [37] = experiment: Compound was evaluated for diuretic activity administered orally in female rats measured as milliequivalents of Cl-x 100 / cage at 3 mg/kg; type: functional, Urine; conditions: route oral
Rattus norvegicus [38] = experiment: Compound was evaluated for diuretic activity administered orally in female rats measured as milliequivalents of Cl-x 100 / cage at 81 mg/kg; type: functional, Urine; conditions: route oral
Rattus norvegicus [39] = experiment: Compound was evaluated for diuretic activity administered orally in female rats measured as milliequivalents of Cl-x 100 / cage at 9 mg/kg; type: functional, Urine; conditions: route oral
Rattus norvegicus [40] = experiment: Compound was evaluated for diuretic activity administered orally in female rats measured as milliequivalents of K+x 100 / cage at 27 mg/kg; type: functional, Urine; conditions: route oral
Rattus norvegicus [41] = experiment: Compound was evaluated for diuretic activity administered orally in female rats measured as milliequivalents of K+x 100 / cage at 3 mg/kg; type: functional, Urine; conditions: route oral
Rattus norvegicus [42] = experiment: Compound was evaluated for diuretic activity administered orally in female rats measured as milliequivalents of K+x 100 / cage at 81 mg/kg; type: functional, Urine; conditions: route oral
Rattus norvegicus [43] = experiment: Compound was evaluated for diuretic activity administered orally in female rats measured as milliequivalents of K+x 100 / cage at 9 mg/kg; type: functional, Urine; conditions: route oral
Rattus norvegicus [44] = experiment: Compound was evaluated for diuretic activity administered orally in female rats measured as milliequivalents of Na+x 100 / cage at 27 mg/kg; type: functional, Urine; conditions: route oral
Rattus norvegicus [45] = experiment: Compound was evaluated for diuretic activity administered orally in female rats measured as milliequivalents of Na+x 100 / cage at 3 mg/kg; type: functional, Urine; conditions: route oral
[46] = volume of urine at 27 mg/kg; type: ADME, organism-based; parameters: dose 27 mg/kg; conditions: in vivo

In the case of `CC1(c2ccccc2)C(=O)c2cc(OCC(=O)O)c(Cl)c(Cl)c2C1=O` (configuration not stated), the Increase in volume (Pan troglodytes [1]) is reported as 0.6 mL/min, the “Delta C urate / delta C insulin” value (Pan troglodytes [2]) is reported as 0.01 and the “Delta C urate / delta C insulin” value (Pan troglodytes [3]) is reported as 0.043. The Increase (Pan troglodytes [4]) was 2, the Increase in volume (Pan troglodytes [5]) was 0.3 mL/min and the Increase (Pan troglodytes [6]) was 36. For the same compound, the Increase (Pan troglodytes [7]) was 30, the Increase (Pan troglodytes [8]) was 31 and the Increase (Pan troglodytes [9]) was 25. For the same compound, the Increase (Pan troglodytes [10]) was 29.

For `CCC1C(=O)c2cc(OCC(=O)O)c(C)c(C)c2C1=O` (configuration not stated), the Urine volume (Canis familiaris [11]) was 553 mL, the Increase in volume (Pan troglodytes [1]) was 1.6 mL/min and the Increase in volume (Pan troglodytes [12]) was 1.2 mL/min. For the same compound, the “Delta C urate / delta C insulin” value (Pan troglodytes [13]) was 0.101, the “Delta C urate / delta C insulin” value (Pan troglodytes [3]) was 0.061 and the Increase (Pan troglodytes [14]) was 254. For the same compound, the Increase (Pan troglodytes [15]) was 194, the Increase (Pan troglodytes [6]) was 314 and the Increase (Pan troglodytes [16]) was 244. For the same compound, the Increase (Pan troglodytes [9]) was 41, the Activity (Canis familiaris [17]) was 114 u equiv min-1 and the Increase (Pan troglodytes [18]) was 30. It also gave an Activity (Canis familiaris [19]) of 4 mL/min, an Activity (Canis familiaris [20]) of 24 u equiv min-1 and an Activity (Canis familiaris [21]) of 196 u equiv min-1. The Activity (Canis familiaris [22]) was 8, the Activity (Canis familiaris [23]) was 5 and the Activity (Canis familiaris [24]) was 6.

`NS(=O)(=O)c1cc(C(=O)O)c(NCc2ccco2)cc1Cl` [FUROSEMIDE] showed a Urine volume (Canis familiaris [25]) of 3 mL/min, a Urine volume [26] of 26 mL and a Urine volume [27] of 46 mL. The Urine volume [28] was 28 mL, the Urine volume (Canis familiaris [29]) was 36 mL and the Increase (Pan troglodytes [1]) was 0.8 mL/min. The Increase in volume (Pan troglodytes [1]) was 7.3 mL/min, the “Delta C urate / delta C insulin” value (Pan troglodytes [30]) was -0.005 and the “Delta C urate / delta C insulin” value (Pan troglodytes [3]) was -0.083. The Increase (Pan troglodytes [14]) was 749, the Increase (Pan troglodytes [4]) was 738 and the Increase (Pan troglodytes [6]) was 928. For the same compound, the Increase (Pan troglodytes [7]) was 961, the Increase (Pan troglodytes [9]) was 154 and the “P Increase” value (Pan troglodytes [9]) was 100. For the same compound, the Activity (Canis familiaris [31]) was 1081 u equiv min-1, the Activity (Canis familiaris [32]) was 141 u equiv min-1 and the Activity (Canis familiaris [33]) was 960 u equiv min-1. For the same compound, the Activity (Canis familiaris [22]) was 8, the Activity (Canis familiaris [23]) was 31 and the Activity (Canis familiaris [24]) was 23. The Activity (Rattus norvegicus [34]) was 253, the Activity (Rattus norvegicus [35]) was 69 and the Activity (Rattus norvegicus [36]) was 228. For the same compound, the Activity (Rattus norvegicus [37]) was 71, the Activity (Rattus norvegicus [38]) was 328 and the Activity (Rattus norvegicus [39]) was 96. The Activity (Rattus norvegicus [40]) was 60, the Activity (Rattus norvegicus [41]) was 31 and the Activity (Rattus norvegicus [42]) was 97. The Activity (Rattus norvegicus [43]) was 39, the Activity (Rattus norvegicus [44]) was 150 and the Activity (Rattus norvegicus [45]) was 57. For the same compound, the Urine volume [46] was 36 mL.

From ChEMBL document CHEMBL1122681, “(Acylaryloxy)acetic acid diuretics. 5. [(2-Alkyl- and 2,2-disubstituted-1,3-dioxo-5-indanyl)oxy]acetic acids” (J Med Chem, 1984)
